Data taken from US20220088014A1 (priority 2019, published 2022).
Read-outs that look alike come from different tables or passages of the source.

Tests used:
[1] = Rat tolerance/dependence study, 28 day repeated dosing and withdrawal
[2] = Cue-induced reinstatement (relapse) in heroin addicted rats; assay type: in vivo, male Long-Evans hooded rats
[3] = rat, in vivo
[4] = IV self-administration substitution study in heroin-maintained primates (FR 30)
[5] = Pretreatment study: effect on heroin self-administration; assay type: in vivo, rhesus monkeys
[6] = Dose-finding study: lever pressing for food (FR 10); settings: two monkeys

Compound	predominant behavioral and physical effects during the dosing phase ([1]; 0.3 mg/kg s.c. four times per day)	tolerance during dosing for 28 days ([1]; 0.3 and 3 mg/kg s.c. four times per day)	physical dependence upon cessation of dosing ([1]; 0.3 and 3 mg/kg s.c. four times per day, 28 days)	effect on animal body weight, food and water intake or body temperature ([1]; 0.3 and 3 mg/kg s.c. four times per day, on-dose or withdrawal phase)	main behavioral and physical signs during the dosing phase ([1]; higher dose, 3 mg/kg s.c. four times per day)	Active lever presses during the reinstatement test session ([2]; 1 mg/kg s.c. 30 minutes pre-session)	Active lever presses during the reinstatement test session ([2]; 3 mg/kg s.c. 30 minutes pre-session)	Active lever presses during the reinstatement test session ([2]; 10 mg/kg s.c. 30 minutes pre-session)	t-1/2 ([3]; po, 10 mg/kg) [h]	t-1/2 ([3]; sc, 3 mg/kg) [h]	Infusions per session (mean ± SEM, N = 4) ([4]; 0.01 mg/kg/infusion IV)	Infusions per session (mean ± SEM, N = 4) ([4]; 0.1 mg/kg/infusion IV)	Heroin infusions per session (mean ± SEM, N = 4) ([5]; pretreatment 0.1 mg/kg IV 15 minutes prior)	Heroin infusions per session (mean ± SEM, N = 4) ([5]; pretreatment 1.0 mg/kg IV 15 minutes prior)	Heroin infusions per session (mean ± SEM, N = 4) ([5]; pretreatment 1.0 mg/kg SC (100% PEG) 15 minutes prior)	average rate of responding for food ([6]; 0.0001 mg/kg IV) [responses per second]	average rate of responding for food ([6]; 0.001 mg/kg IV) [responses per second]	average rate of responding for food ([6]; 0.01 mg/kg IV) [responses per second]	average rate of responding for food ([6]; 0.1 mg/kg IV) [responses per second]	tolerance and dependence ([1]; 30 mg/kg orally twice per day, 28 days)
O=C1CN2c3c(cccc3[C@@H]3CN(CCCOc4ccc(F)cc4)CC[C@@H]32)N1 [Example 1, (6bR,10aS)-8-(3-(4-fluorophenoxy)propyl)-6b,7,8,9,10,10a-hexahydro-1H-pyrido[3′,4′:4,5]pyrrolo[1,2,3-de]quinoxalin-2(3H)-one]	hunched posture, Straub tail and piloerection	does not produce tolerance	not to produce a syndrome of physical dependence	no significant effect	hunched posture, subdued behavior, Straub tail, tail rattle and piloerection	22.64	31.17	29.50	3.1	9.5	0.6 ± 0.2	1.5 ± 0.3	24.8 ± 0.8	23.3 ± 2.8	24.5 ± 1.9	0.94±0.01	0.86±0.11	0.97±0.21	0.98±0.24	–
CN1CC[C@]23c4c5ccc(O)c4O[C@H]2[C@@H](O)C=C[C@H]3[C@H]1C5 [Morphine, morphine, reference compound]	–	–	–	–	–	–	–	–	–	–	–	–	–	–	–	–	–	–	–	clear signs of tolerance and dependence
